Data on three compounds can be found in US5252589A, “Benzocycloheptene derivative and process for preparation thereof” (Tanabe Seikayu Co., Ltd., priority 1992, dated 1993).

The subject of one series is urinary bladder. The series can be described thus: Inhibitory effect on urinary bladder contractions (carbachol-induced, isolated rat urinary bladder). To be noted: Tyrode solution 37° C., contraction by 1×10^-5 M carbachol, compound added 5 minutes before carbachol, read-out: IC50, concentration of the test compound required to induce 50% inhibition of the pressure. As to the method: (Inhibitory effect on urinary bladder contractions)
Rats (body weight: 250 to 450 g) were used as the test animals. […] Urinary bladder was filled with 0.8 ml of a physiological saline solution. An ureteral catheter was inserted into the urinary bladder and one end of the catheter was connected to a pressure transducer. The change in intravesical pressure of the bladder was recorded. Contraction was induced by adding 1×10^-5 M carbachol at 30 minutes intervals. After the contraction became stable, the test compound was added to the Tyrode solution 5 minutes before the addition of carbachol.

A short description of series [1]: Acute oral toxicity in mice. Format: in vivo. The settings on record: 500 mg/kg. As to the method: For example, when (±)-cis-5-(2-thienyl)-7-isopropylamino-6,7,8,9-tetrahydro-5H-benzocyclohepten-5-ol was orally administered to mice at a dose of 500 mg/kg, no mouse died two days after the administration thereof.

Several values for one entry are separate records, joined by “and”; a condition that tells them apart may be missing. Identical values can stand only once.

Take `O[C@@]1(c2cccs2)C[C@@H](N2CCCCC2)CCc2ccccc21` (racemic) [(±)-cis-5-(2-thienyl)-7-(1-piperidinyl)-6,7,8,9-tetrahydro-5H-benzocyclohepten-5-ol]: the IC50 with urinary bladder was 700 nM.

Take `CCN(CC)[C@H]1CCc2ccccc2[C@](O)(c2cccs2)C1` (racemic) [(±)-cis-5-(2-thienyl)-7-diethylamino-6,7,8,9-tetrahydro-5H-benzocyclohepten-5-ol]: in the series with urinary bladder, the IC50 is 1100 nM.

For “(±)-cis-5-(2-thienyl)-7-isopropylamino-6,7,8,9-tetrahydro-5H-benzocyclohepten-5-ol”, the IC50 in the series with urinary bladder was 2600 nM and 2200 nM. Further, the “mortality two days after oral administration” value in series [1] is “no mouse died”.
